Test results taken from US11969428B2, “Methods and pharmaceutical compositions for treating lymphoid malignancy” (priority 2011, dated 2024).

Legend:
Experiment in all cases: Ambit KinomeScan screening
Assay type in all cases: binding
Conditions in all cases: CAL-130 10 μM
[1] = target: T1, RET(V804L) (Homo sapiens, UniProt P07949, V804L)
T1 construct: tag (kind not specified); purchased Ambit (KinomeScan screening service)
In short: (§1)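 Here, % of control binding was determined for tagged kinases captured by an immobilized ligand in the presence of 10 μM CAL-130. Stronger interactions give lower percentages.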

[2] = target: T2, SgK085 (Homo sapiens, UniProt Q86YV6)
T2 construct: tag, kind not specified; purchased Ambit (KinomeScan screening service)
In short: as §1

[3] = target: T3, FLT1 (Homo sapiens, UniProt P17948)
T3 construct: unspecified tag; purchased Ambit (KinomeScan screening service)
In short: as §1

[4] = target: T4, MAP3K15 (Homo sapiens, UniProt Q6ZN16)
T4 construct: Ambit (KinomeScan screening)
In short: as §1

[5] = target: T5, ASK1 (Homo sapiens, UniProt Q99683)
T5 construct: purchased Ambit (KinomeScan screening service)
In short: as §1

[6] = target: T6, RET(M918T) (Homo sapiens, UniProt P07949, M918T)
T6 construct: tag (kind not specified); purchased Ambit (KinomeScan screening service)
In short: as §1

[7] = target: T7, MAK (Homo sapiens, UniProt P20794)
T7 construct: unspecified tag ('tagged kinases'); purchased Ambit (KinomeScan screening service)
In short: as §1

[8] = target: T8, MLCK (Homo sapiens, UniProt Q32MK0)
T8 construct: unspecified tag ('tagged kinases'); purchased Ambit (KinomeScan screening)
In short: as §1

[9] = target: T9, EPHA2 (Homo sapiens, UniProt P29317)
T9 construct: purchased Ambit (KinomeScan screening service)
In short: as §1

[10] = target: T10, CAMKK1 (Homo sapiens, UniProt Q8N5S9)
T10 construct: purchased Ambit (KinomeScan screening)
In short: as §1

[11] = target: T11, GRK4 (Homo sapiens, UniProt P32298)
T11 construct: unspecified tag ('tagged kinases'); purchased Ambit (KinomeScan screening service)
In short: as §1

[12] = target: T12, LYN (Homo sapiens, UniProt P07948)
T12 construct: unspecified tag ('tagged kinases'); purchased Ambit (KinomeScan screening service)
In short: as §1

[13] = target: T13, BTK (Homo sapiens, UniProt Q06187)
T13 construct: unspecified tag ("tagged kinases"); purchased Ambit (KinomeScan screening)
In short: as §1

[14] = target: T14, EPHA5 (Homo sapiens, UniProt P54756)
T14 construct: purchased Ambit (KinomeScan screening service)
In short: as §1

[15] = target: T15, SLK (Homo sapiens, UniProt Q9H2G2)
T15 construct: tag, kind not specified; purchased Ambit (KinomeScan screening service)
In short: as §1

[16] = target: T16, CAMK1G (Homo sapiens, UniProt Q96NX5)
T16 construct: unspecified tag ("tagged kinases"); purchased Ambit (KinomeScan screening)
In short: as §1

[17] = target: T17, ABL1(H396P) (Homo sapiens, UniProt P00519, H396P)
T17 construct: unspecified tag ("tagged kinases"); purchased Ambit (KinomeScan screening)
In short: as §1

[18] = target: T18, STK36 (Homo sapiens, UniProt Q9NRP7)
T18 construct: tag (kind not specified); purchased Ambit (KinomeScan screening service)
In short: as §1

[19] = target: T19, CSNK1D (Homo sapiens, UniProt P48730)
T19 construct: purchased Ambit (KinomeScan screening service)
In short: as §1

[20] = target: T20, PIP5K1A (Homo sapiens, UniProt Q99755)
T20 construct: unspecified tag; purchased Ambit (KinomeScan screening panel)
In short: as §1

[21] = target: T21, NIM1 (Homo sapiens, UniProt Q8IY84)
T21 construct: purchased Ambit (KinomeScan screening service)
In short: as §1

[22] = target: T22, CIT (Homo sapiens, UniProt O14578)
T22 construct: purchased Ambit (KinomeScan screening service)
In short: as §1

[23] = target: T23, HIPK4 (Homo sapiens, UniProt Q8NE63)
T23 construct: Ambit (KinomeScan screening)
In short: as §1

[24] = target: T24, PAK7 (Homo sapiens, UniProt Q9P286)
T24 construct: unspecified tag ('tagged kinases'); purchased Ambit (KinomeScan screening)
In short: as §1

[25] = target: T25, PLK3 (Homo sapiens, UniProt Q9H4B4)
T25 construct: purchased Ambit (KinomeScan screening service)
In short: as §1

[26] = target: T26, ANKK1 (Homo sapiens, UniProt Q8NFD2)
T26 construct: purchased Ambit (KinomeScan screening)
In short: as §1

[27] = target: T27, PRKG1 (Homo sapiens, UniProt Q13976)
T27 construct: tag (kind not specified); purchased Ambit (KinomeScan screening service)
In short: as §1

[28] = target: T28, MST4 (Homo sapiens, UniProt Q9P289)
T28 construct: unspecified tag; purchased Ambit (KinomeScan screening panel)
In short: as §1

[29] = target: T29, EGFR(G719S) (Homo sapiens, UniProt P00533, G719S)
T29 construct: unspecified tag; purchased Ambit (KinomeScan screening service)
In short: as §1

[30] = target: T30, TXK (Homo sapiens, UniProt P42681)
T30 construct: tag, kind not specified; purchased Ambit (KinomeScan screening service)
In short: as §1

[31] = target: T31, EPHB6 (Homo sapiens, UniProt O15197)
T31 construct: purchased Ambit (KinomeScan screening service)
In short: as §1

[32] = target: T32, ZAK (Homo sapiens, UniProt Q9NYL2)
T32 construct: purchased Ambit (KinomeScan screening service)
In short: as §1

[33] = target: T33, TYRO3 (Homo sapiens, UniProt Q06418)
T33 construct: tag, kind not specified; purchased Ambit (KinomeScan screening service)
In short: as §1

[34] = target: T34, CDK5 (Homo sapiens, UniProt Q00535)
T34 construct: purchased Ambit (KinomeScan screening)
In short: as §1

[35] = target: T35, MARK1 (Homo sapiens, UniProt Q9P0L2)
T35 construct: Ambit (KinomeScan screening)
In short: as §1

[36] = target: T36, CLK4 (Homo sapiens, UniProt Q9HAZ1)
T36 construct: purchased Ambit (KinomeScan screening service)
In short: as §1

[37] = target: T37, HUNK (Homo sapiens, UniProt P57058)
T37 construct: Ambit (KinomeScan screening)
In short: as §1

Measured: Percent of Control Binding

T14 sequence (P54756 25-1037): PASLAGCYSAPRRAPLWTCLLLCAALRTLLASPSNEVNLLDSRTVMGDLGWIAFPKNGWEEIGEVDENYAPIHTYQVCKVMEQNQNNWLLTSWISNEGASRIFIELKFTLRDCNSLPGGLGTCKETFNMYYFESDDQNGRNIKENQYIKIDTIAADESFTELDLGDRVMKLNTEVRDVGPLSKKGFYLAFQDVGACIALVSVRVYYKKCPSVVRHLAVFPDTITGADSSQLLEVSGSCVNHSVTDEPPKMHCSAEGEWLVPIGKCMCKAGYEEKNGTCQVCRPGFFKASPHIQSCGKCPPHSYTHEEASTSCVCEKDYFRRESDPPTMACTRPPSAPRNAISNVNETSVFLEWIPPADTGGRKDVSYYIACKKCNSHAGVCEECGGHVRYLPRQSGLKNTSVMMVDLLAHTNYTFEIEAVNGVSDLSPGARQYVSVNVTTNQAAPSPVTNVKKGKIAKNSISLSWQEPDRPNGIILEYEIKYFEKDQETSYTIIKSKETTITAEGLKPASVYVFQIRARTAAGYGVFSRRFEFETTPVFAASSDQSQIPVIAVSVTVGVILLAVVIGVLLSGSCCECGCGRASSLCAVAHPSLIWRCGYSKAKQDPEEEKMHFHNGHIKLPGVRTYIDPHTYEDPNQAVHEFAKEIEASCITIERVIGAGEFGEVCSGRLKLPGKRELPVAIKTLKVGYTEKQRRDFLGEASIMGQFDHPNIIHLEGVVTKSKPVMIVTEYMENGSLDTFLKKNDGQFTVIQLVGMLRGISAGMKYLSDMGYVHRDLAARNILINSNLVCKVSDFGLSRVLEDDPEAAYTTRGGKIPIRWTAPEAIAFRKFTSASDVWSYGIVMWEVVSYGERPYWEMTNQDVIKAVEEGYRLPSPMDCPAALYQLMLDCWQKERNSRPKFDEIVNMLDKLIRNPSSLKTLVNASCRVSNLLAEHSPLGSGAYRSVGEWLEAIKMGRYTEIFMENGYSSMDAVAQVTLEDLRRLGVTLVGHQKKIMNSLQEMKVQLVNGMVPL
T23 sequence (Q8NE63 whole entry): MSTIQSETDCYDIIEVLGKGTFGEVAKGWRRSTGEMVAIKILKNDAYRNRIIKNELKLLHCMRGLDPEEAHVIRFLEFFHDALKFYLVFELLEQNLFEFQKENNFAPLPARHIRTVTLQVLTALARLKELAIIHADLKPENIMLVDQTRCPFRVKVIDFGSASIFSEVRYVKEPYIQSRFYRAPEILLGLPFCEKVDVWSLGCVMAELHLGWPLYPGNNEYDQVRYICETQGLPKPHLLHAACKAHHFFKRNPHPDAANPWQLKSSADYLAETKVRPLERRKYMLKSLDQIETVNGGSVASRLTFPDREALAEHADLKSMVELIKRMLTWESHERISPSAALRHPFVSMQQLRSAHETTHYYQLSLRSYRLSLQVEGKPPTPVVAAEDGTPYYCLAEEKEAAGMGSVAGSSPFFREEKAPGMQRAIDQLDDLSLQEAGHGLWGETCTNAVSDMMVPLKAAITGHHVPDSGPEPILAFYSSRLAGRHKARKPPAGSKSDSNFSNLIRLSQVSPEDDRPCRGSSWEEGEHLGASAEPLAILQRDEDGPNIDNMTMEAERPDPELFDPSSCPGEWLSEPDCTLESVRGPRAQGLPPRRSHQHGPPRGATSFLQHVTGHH
T7 sequence (P20794 whole entry): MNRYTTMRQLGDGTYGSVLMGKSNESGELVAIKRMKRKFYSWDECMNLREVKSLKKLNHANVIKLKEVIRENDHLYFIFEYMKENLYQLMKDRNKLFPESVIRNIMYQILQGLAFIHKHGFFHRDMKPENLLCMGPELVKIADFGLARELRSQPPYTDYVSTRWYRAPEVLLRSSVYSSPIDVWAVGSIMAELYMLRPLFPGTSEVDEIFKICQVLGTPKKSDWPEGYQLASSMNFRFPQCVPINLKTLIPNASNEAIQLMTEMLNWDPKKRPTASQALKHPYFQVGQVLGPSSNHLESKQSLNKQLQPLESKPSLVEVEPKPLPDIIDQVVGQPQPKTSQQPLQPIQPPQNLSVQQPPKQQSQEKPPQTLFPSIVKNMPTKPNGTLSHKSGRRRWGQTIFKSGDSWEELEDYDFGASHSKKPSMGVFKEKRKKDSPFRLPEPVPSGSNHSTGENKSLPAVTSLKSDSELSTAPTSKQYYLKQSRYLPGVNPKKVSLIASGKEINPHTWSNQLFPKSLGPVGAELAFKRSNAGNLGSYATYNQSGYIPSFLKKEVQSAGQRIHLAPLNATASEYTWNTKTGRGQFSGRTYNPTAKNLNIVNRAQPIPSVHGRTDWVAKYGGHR
T19 sequence (P48730 whole entry): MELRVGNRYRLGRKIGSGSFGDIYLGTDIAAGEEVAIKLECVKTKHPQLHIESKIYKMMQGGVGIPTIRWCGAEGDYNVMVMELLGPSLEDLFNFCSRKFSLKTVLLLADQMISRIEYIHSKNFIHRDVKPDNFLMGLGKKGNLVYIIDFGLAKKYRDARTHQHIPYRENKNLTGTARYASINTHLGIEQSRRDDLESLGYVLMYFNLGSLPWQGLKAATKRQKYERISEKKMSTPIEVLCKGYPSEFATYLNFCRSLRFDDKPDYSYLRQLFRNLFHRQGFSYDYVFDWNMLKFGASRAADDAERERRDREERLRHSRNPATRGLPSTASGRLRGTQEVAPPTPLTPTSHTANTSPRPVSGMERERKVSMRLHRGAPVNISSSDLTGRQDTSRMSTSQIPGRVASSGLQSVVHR
T30 sequence (P42681 whole entry): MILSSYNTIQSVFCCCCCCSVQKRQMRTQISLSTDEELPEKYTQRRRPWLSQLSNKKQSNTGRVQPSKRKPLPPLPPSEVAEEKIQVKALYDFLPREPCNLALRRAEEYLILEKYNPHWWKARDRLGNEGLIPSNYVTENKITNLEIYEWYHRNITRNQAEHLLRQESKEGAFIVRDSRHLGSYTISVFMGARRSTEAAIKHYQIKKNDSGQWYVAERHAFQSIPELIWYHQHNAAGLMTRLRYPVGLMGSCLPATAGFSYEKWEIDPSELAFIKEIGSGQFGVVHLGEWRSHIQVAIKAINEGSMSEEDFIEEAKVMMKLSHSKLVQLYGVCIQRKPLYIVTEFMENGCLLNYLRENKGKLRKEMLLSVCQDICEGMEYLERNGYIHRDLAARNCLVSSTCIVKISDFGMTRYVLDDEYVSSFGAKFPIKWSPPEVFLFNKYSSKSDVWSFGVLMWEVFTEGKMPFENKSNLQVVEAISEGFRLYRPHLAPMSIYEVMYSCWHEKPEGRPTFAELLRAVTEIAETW
T5 sequence (Q99683 whole entry): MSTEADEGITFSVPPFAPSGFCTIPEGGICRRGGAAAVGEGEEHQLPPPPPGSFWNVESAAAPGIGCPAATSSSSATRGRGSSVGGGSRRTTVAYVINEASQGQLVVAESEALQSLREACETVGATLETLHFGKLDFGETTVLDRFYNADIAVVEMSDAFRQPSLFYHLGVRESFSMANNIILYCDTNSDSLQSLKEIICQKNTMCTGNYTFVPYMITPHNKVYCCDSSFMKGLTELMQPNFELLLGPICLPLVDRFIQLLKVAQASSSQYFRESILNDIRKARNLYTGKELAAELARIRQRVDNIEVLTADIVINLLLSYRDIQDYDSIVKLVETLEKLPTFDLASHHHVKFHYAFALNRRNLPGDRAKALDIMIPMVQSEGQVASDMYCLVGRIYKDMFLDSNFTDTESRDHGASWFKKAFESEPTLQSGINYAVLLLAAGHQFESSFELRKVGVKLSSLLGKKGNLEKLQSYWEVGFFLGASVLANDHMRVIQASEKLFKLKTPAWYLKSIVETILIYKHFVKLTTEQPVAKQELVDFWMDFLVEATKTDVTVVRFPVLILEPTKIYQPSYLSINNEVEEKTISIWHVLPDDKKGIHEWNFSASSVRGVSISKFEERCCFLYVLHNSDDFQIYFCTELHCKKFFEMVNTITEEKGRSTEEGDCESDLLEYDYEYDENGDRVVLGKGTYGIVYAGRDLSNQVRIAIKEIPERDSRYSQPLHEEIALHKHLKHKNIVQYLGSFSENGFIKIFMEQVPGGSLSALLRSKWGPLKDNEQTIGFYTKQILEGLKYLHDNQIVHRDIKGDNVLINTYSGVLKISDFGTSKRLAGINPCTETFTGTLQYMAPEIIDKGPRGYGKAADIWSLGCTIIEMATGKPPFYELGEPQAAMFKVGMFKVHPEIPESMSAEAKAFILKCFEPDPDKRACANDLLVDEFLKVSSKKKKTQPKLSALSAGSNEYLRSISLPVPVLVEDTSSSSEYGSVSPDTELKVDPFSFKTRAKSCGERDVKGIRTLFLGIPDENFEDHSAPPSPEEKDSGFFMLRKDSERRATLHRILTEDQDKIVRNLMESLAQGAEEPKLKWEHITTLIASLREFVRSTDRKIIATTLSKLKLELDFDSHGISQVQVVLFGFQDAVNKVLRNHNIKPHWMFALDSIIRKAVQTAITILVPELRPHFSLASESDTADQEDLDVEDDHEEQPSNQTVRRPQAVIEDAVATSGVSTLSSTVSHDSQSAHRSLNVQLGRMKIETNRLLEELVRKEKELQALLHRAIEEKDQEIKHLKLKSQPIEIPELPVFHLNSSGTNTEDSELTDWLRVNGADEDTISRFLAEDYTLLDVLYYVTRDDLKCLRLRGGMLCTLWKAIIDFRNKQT
T28 sequence (Q9P289 whole entry): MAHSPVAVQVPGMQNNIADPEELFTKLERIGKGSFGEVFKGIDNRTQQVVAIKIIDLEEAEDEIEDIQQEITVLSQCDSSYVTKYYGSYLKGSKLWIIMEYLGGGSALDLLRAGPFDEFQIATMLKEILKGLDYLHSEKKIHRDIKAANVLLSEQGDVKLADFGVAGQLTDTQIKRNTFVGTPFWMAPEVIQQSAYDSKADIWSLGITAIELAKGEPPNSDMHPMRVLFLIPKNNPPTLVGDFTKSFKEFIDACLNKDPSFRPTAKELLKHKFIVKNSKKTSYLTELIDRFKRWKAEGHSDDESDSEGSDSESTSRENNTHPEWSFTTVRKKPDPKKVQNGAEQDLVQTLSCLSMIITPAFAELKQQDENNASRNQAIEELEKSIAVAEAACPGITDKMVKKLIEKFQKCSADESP

Cc1ccccc1-n1c(C(C)Nc2nc(N)nc3nc[nH]c23)nc2cccc(C)c2c1=O (stereo not shown) [CAL-130]
100%: all assays above
